From paper PMC6640931 (ACS Omega, 2017)
Where “and” joins values, the source holds several entries; their conditions need not be identical. Equal entries are not always repeated.

What was measured:
[1] = Equilibrium solubility in deionized water; settings: for solubility, acyclovir active: DI water (pH 6.92), room temperature; for solubility: DI water (pH = 6.92)
[2] = Solubility in simulated body fluids; type: physicochemical
[3] = cited from earlier work
[4] = Thermogravimetric analysis; type: physicochemical; settings: under nitrogen, 5 °C/min
[5] = cited from earlier work; remark: listed apart in the source

For `CCCC[N+](CCCC)(CCCC)CCCC.Nc1nc2c(ncn2COCCO)c(=O)[n-]1` [[N4,4,4,4][Acy] (3), Tetrabutylammonium Acyclovir], the “solubility, acyclovir active” value [1] was 213.7 mg active/mL, the “solubility” value [1] was 213.7 mg acyclovir active/mL and the “solubility, acyclovir active” value ([2]; PBS, pH 7.4) was 220(20) mg active/mL. For the same molecule, the “solubility, acyclovir active” value ([2]; SGF, pH 1.2) was 170(20) mg active/mL, the “solubility, acyclovir active” value ([2]; SIF, pH 6.8) was 140(10) mg active/mL and the “acyclovir active delivered relative to acyclovir itself” value ([2]; across the three media (PBS, SIF, SGF), depending on the medium) was “ca. 150 times”.
In the case of `C[N+](C)(C)CCO.Cc1ccc(C(=O)c2ccc(CC(=O)[O-])n2C)cc1` [choline tolmetin], the “water solubility of choline salt relative to neutral form” value [3] is listed as 8000 times.
With `C[N+](C)(C)CCO.Nc1nc2c(ncn2COCCO)c(=O)[nH]1` [[Cho][Acy] (1), Choline Acyclovir] the “T5% (decomposition of 5% of the sample), TGA” value [4] was 131 °C.
With `CCCCCCCCCCCCCCCC[N+](C)(C)C.Nc1nc2c(ncn2COCCO)c(=O)[n-]1` [[N1,1,1,16][Acy] (4), Hexadecyltrimethylammonium Acyclovir] the “solubility, acyclovir active” value [1] was 101.3(5) mg active/mL and the “solubility” value [1] was 101.3 mg acyclovir active/mL.
For `CC(C)[C@H](N)C(=O)OCCOCn1cnc2c(=O)[nH]c(N)nc21` [valacyclovir], the oral bioavailability [5] is given as “ca. 55%” and the “oral bioavailability relative to acyclovir” value [5] is given as 3 times.
In the case of `Nc1nc2c(ncn2COCCO)c(=O)[nH]1` [acyclovir (3Acy·2H2O), 9-[(2-hydroxyethoxy)methyl]guanine, reference compound], the “T5% (decomposition of 5% of the sample), TGA” value [4] is given as 240.1 °C, the solubility in water ([3]; at 22–25 °C) is given as 1200 to 1600 µg/mL and the solubility ([2]; simulated intestinal fluid (SIF), pH 6.8, thermodynamic from solid) is given as 4440 µM and 1000 µg/mL.
With `CCCCC(CC)COC(=O)CC(C(=O)OCC(CC)CCCC)S(=O)(=O)O.Nc1nc2c(ncn2COCCO)c(=O)[nH]1` (stereo not drawn) [[H2Acy][Doc] (6), Acyclovir Docusate] the “T5% (decomposition of 5% of the sample), TGA” value [4] was 122.1 °C, the “solubility, acyclovir active” value [1] was 2.948(4) mg active/mL and the “solubility” value [1] was 2.9 mg acyclovir active/mL.
